# In publication PMC11035696, “Prospective de novo drug design with deep interactome learning” (Nature Communications, 2024):
# pIC50: −log10 of the molar value. Entries after “also recorded” stand apart in the source; their conditions may differ.
# Key:
# [1] = biological target: XANTHINE OXIDASE (Bos taurus, UniProt P80457); assay: Safety off-target panel, enzymatic; assay type: biochemical, Bovine; conditions: single point
# Description: (§1) Table S9-S12 list all targets, their species, inhibition (%) and assay type for the experiments conducted in the
# (§2) off-targets. […] The numbers for mean
# (§3) inhibition (%) represent single point measurements.
# (§4) off-targets. […] The numbers for
# (§5) mean inhibition (%) represent single point measurements.
# [2] = test system: PCP RECEPTOR; assay: Safety off-target panel, binding; design: species or system Rat; conditions: 10 µM, single point
# Description: as §1, §2, §3, §4, §5
# [3] = test system: CA2+ CHANNEL (DILTIAZEM SITE); assay: Safety off-target panel, binding; design: species or system Rat; conditions: 10 µM, single point
# Description: as §1, §2, §3, §4, §5
# [4] = test system: GABA-A (BENZODIAZAPINE BINDING SITE); assay: Safety off-target panel, binding; design: species or system Rat; conditions: 10 µM, single point
# Description: as §1, §2, §3, §4, §5
# [5] = biological target: CYP2B6 (Homo sapiens, UniProt P20813); assay: CYP inhibition dose-response; assay type: in vitro ADME; conditions: substrate BUPROPION
# Chain of CYP2B6 (P20813 whole entry): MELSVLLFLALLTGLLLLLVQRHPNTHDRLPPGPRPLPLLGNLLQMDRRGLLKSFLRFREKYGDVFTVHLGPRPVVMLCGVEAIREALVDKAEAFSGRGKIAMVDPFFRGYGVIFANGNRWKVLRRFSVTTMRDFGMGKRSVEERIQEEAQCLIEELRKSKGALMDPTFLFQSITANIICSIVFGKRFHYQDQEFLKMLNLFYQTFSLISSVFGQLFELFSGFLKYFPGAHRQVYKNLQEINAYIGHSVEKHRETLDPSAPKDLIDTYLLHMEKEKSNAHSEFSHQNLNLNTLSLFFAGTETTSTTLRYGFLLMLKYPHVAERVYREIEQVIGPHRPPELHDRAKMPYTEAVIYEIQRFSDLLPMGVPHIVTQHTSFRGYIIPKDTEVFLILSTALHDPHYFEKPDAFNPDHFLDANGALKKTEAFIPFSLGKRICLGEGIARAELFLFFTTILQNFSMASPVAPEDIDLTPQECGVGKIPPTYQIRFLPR
# Experimental: (§6) SI11Absorption Distribution Metabolism and Excretion and Toxicity Data
# (§7) To assess the drug-like characteristics of the newly designed PPAR modulators, a series of tests were conducted covering various aspects of absorption, distribution, metabolism, and excretion (ADME) properties. Specifically, these assessments included the parallel artificial membrane permeability assay (PAMPA) with permeation co- […]
# (§8) efficients ([…]), LogD measurements, microsomal clearance, hepatocyte clearance, P-glycoprotein (Pgp) efflux ratio and binding and the unbound free fraction. Furthermore, the evaluation of inhibition po-tential against cytochrome P450 isoenzymes (CYP) proteins was investigated. For seven selected CYP proteins (i.e., Cyp3A4, Cyp1A2, Cyp2B6, Cyp2C9, Cyp2D6, Cyp2C19, and Cyp2C8) the half maximal inhibitory con-centration (IC50) was determined. (Table S15). […]
# (§9) activity in the CYP assays was found.
# (§10) Table S14: Absorption distribution metabolism and excretion (ADME) properties of compounds 1 and 2. […]
# (§11) The values for microsomal clearance and CYP-inhibition represent single point measurements. […]
# (§12) Molecule Enzyme Substrate IC50 (µM) […]
# [6] = biological target: CYP2C19 (Homo sapiens, UniProt P33261); assay: CYP inhibition dose-response; assay type: in vitro ADME; conditions: substrate S-MEPHENYTOIN
# Chain of CYP2C19 (P33261 whole entry): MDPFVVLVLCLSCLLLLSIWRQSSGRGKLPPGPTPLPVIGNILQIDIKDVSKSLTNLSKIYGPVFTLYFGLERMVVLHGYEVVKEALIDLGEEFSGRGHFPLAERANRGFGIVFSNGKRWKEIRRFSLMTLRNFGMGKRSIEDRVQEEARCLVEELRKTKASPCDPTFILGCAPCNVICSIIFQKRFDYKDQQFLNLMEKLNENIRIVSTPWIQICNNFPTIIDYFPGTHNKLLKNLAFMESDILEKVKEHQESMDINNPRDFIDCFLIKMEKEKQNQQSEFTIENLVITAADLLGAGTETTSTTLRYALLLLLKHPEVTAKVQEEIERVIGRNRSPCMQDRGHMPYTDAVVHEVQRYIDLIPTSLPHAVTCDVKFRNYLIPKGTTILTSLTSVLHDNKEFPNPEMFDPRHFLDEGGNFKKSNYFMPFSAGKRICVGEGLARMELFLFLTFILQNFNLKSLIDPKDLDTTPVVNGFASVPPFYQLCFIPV
# Experimental: as §6, §7, §8, §9, §10, §11, §12
# [7] = biological target: CYP1A2 (Homo sapiens, UniProt P05177); assay: CYP inhibition dose-response; assay type: in vitro ADME; conditions: substrate PHENACETIN
# Chain of CYP1A2 (P05177 whole entry): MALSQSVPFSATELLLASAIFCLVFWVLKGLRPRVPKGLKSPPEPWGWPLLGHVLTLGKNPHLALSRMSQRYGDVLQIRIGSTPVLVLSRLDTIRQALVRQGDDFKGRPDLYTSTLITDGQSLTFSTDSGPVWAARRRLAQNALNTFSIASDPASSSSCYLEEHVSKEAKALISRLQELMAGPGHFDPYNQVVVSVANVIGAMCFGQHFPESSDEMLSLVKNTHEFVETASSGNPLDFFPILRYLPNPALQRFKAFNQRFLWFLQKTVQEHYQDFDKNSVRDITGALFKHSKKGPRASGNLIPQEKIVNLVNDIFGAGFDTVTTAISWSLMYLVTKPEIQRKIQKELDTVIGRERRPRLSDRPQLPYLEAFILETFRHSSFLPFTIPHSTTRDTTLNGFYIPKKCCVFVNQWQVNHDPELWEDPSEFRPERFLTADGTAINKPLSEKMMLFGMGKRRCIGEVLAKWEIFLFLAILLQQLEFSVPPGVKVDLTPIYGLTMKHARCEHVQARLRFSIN
# Experimental: as §6, §7, §8, §9, §10, §11, §12
# [8] = Protein binding, unbound free fraction; assay type: in vitro ADME; conditions: human, plasma
# Experimental: (§13) Compounds 1–3 were characterized in a hybrid reporter gene assay for their agoniztic effect on human nuclear receptors PPARα/γ/δ, RXRα, FXRα, RARα in HEK293T cells. Compound 1 was tested in an isothermal titration calorimetry (ITC) assay to measure direct binding affinity to the ligand-binding domain of PPARγ. ADME properties were measured in standardized assays at Roche.
# as §6, §7
# (§14) efficients ([…]), LogD measurements, microsomal clearance, hepatocyte clearance, P-glycoprotein (Pgp) efflux ratio and binding and the unbound free fraction. […]
# (§15) Table S14: Absorption distribution metabolism and excretion (ADME) properties of compounds 1 and 2. The […]
# (§16) values for […], LogD, protein binding, P-glycoprotein (Pgp) efflux ratio and permeability, and hepato-cyte clearance are presented as the mean and standard deviation, with a sample size of N = 3, i.e., 3 technical replicates each. The values for microsomal clearance and CYP-inhibition represent single point measurements. […]
# [9] = test system: cytochrome P450 isoenzymes (Cyp3A4, Cyp1A2, Cyp2B6, Cyp2C9, Cyp2D6, Cyp2C19, Cyp2C8); assay: CYP inhibition, summary over seven isoenzymes; assay type: in vitro ADME; conditions: dose-response experiments up to 20 μM, result in words
# Experimental: as §6, §7, §8, §9, §10, §11, §12
# [10] = test system: P-glycoprotein (Pgp); assay: P-glycoprotein (Pgp) efflux assay; assay type: in vitro ADME; conditions: mouse; for Papp: PAMPA, read-out: PgP Transport mouse permeability; for efflux ratio: not told, read-out: PgP Transport mouse apical efflux ratio
# Experimental: as §13, §6, §7, §14, §15, §16
# PgP Transport mouse apical efflux ratio - 1.6 1.2
# PgP Transport mouse permeability (nm·sec−1) - 15 60 […]
# Chain of XANTHINE OXIDASE (P80457 whole entry): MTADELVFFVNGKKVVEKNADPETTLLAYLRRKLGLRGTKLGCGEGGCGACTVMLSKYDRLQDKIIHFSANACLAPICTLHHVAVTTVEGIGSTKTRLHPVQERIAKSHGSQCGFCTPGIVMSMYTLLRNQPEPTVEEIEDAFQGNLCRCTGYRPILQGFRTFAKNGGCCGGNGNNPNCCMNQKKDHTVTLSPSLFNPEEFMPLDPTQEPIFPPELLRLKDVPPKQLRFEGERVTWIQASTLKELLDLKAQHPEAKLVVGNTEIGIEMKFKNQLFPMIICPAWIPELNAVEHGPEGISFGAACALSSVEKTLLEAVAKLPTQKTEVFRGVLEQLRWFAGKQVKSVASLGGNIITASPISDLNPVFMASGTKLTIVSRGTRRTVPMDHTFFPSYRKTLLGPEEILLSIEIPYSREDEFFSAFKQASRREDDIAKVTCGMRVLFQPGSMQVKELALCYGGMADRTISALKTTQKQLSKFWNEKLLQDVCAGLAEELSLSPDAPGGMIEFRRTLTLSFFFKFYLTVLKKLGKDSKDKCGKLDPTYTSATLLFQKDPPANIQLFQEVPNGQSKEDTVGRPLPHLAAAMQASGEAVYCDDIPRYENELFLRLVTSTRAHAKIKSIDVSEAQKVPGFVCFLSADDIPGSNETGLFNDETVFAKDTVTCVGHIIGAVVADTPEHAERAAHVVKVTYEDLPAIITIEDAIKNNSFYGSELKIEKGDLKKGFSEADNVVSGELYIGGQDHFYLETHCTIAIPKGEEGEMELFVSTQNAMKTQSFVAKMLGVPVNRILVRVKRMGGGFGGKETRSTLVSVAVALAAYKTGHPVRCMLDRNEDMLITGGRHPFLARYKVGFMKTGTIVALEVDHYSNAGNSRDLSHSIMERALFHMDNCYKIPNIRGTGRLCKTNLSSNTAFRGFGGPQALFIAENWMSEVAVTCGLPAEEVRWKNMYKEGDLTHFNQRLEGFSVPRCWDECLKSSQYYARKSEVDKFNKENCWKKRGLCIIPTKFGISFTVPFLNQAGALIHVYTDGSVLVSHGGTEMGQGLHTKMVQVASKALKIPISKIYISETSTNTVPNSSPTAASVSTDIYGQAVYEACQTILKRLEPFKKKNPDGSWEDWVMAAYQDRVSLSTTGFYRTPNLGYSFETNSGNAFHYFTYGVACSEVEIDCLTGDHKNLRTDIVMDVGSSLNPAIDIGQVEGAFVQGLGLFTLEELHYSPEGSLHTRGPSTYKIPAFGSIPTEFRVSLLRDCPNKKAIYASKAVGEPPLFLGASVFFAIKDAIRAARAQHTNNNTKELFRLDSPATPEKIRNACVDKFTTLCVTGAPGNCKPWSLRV
compound,measurement,setting,value
COc1ccc(Oc2ccc3ncn(CCOc4ccc(CCC(=O)O)cc4)c3c2)cc1 [Compound 2],inhibition at 10 µM,[1],0.4%
same,Mean inhibition (%),[2],11.8%
same,Mean inhibition (%),[3],-11.7%
same,Mean inhibition (%),[4],57.8%
same,pIC50,[5],< 4.70
same,pIC50,[6],< 4.70
same,pIC50,[7],< 4.70
same,fraction unbound,[8],0.0042
same,interaction with the seven pivotal cytochrome P450 isoenzymes,[9],did not echibit any relevant; also recorded: did not exhibit any relevant activity
same,Papp,[10],6 ×10⁻⁶ cm/s
same,efflux ratio,[10],1.2
Cc1nnc(-c2ccc(OCCCOc3ccc(CCC(=O)O)c(F)c3)c(F)c2)s1 [Compound 1],inhibition at 10 µM,[1],-3.1%
same,Mean inhibition (%),[2],-12.0%
same,Mean inhibition (%),[3],-4.7%
same,Mean inhibition (%),[4],12.5%
same,pIC50,[5],< 4.70
same,pIC50,[6],< 4.70
same,pIC50,[7],< 4.70
same,fraction unbound,[8],0.0021
same,interaction with the seven pivotal cytochrome P450 isoenzymes,[9],did not echibit any relevant; also recorded: did not exhibit any relevant activity
same,Papp,[10],1.5 ×10⁻⁶ cm/s
same,efflux ratio,[10],1.6
